Series [1] deals with freshly-isolated CLL cells. Put plainly: Exogenous NO donors and drugs on freshly-isolated CLL cells (apoptosis and death). The series is classed as cell-based, human. To be noted: combination with fludarabine. An excerpt: We next wanted to examine CLL cells. These malignant cells differ in many ways from ANLL and normal hematopoietic. In addition to their different lineage, they are unique in that they have a very low […], exist primary in the G0 phase of the cell cycle, and have defective apoptosis.

Series [2] concerns HL-60 and U937 cells. The series can be described thus: NO donor inhibition of leukemia cell and colony growth. The format is cell-based, human. An excerpt:
To more closely examine the mechanism of toxicity for myeloid leukemia cells, we did work to determine whether the rate of NO delivery affected its growth inhibition of acute nonlymphocytic leukemia cells. We also wanted to determine whether the NO inhibition of cell growth is associated induction of apoptosis. We treated HL-60 and U937 cells with three compounds that generate the same amount of NO but different rates. […] Furthermore, NO-induced growth inhibition was associated with apoptosis in a rate and concentration-dependent fashion (Reference 39).

In series [3] the test system is CLL cells. The series can be described thus: CLL cell apoptosis (TUNEL assay). The format is cell-based, human. Conditions: CLL cells in vitro. How it is done: Culture of cells with IL-4 or IFN-γ (but not TNF-α, IL-2, IL-6, IL-8, G-CSF, nerve growth factor, or IFN-α) increased NO production. By quantitative RT-PCR, IL-4 increased NOS2 mRNA (FIG. 8). Also, 5 of 5 patients' CLL cells had increases in NOS2 protein (immunoblot) after in vitro treatment with IL-4. Apoptosis (TUNEL assay) was induced by NMMA treatment of the cells, and incubating cells with IL-4 or IFN-y reduced apoptosis. […] Since IL-4 and IFN-gamma induce NOS2 and modulate CD38 expression in CLL cells in vitro, we sought to determine if CLL patients had elevated levels of these cytokines and if the levels related to CD38 expression by the leukemia cells (Reference 87).

For series [4] the following is noted: normals, trials for septic shock and migraine; cited from earlier work.
Series [5] has as its system CLL cells. The series can be described thus: Cytotoxicity of NOS inhibitors for CLL cells in vitro (MTS assay). To be noted: cytotoxicity for CLL cells in vitro. From the text: We worked to optimize the culture of CLL cells (Reference 86). […] These were all tested with and without albumin, fetal bovine serum, human serum, glutamine, insulin, transferrin, selenium, and mercaptoethanol.
Toxicity could be detected by disappearance of cells from the culture (reduction in overall cell number), uptake of trypan blue, propidium iodide uptake (flow cytometry), MTS (4,5-dimethylthiazol-2-yl)-5-(3-carboxymethoxyphenyl)-2-(4-sulfophenyl)-2H-tetrazolium, inner salt) assay (cellular respiration), and several parameters of apoptosis [annexin V assay, DNA content […], and TUNEL assay].
In general terms: Tetrazolium assays rely on reduction of a dye to a coloured formazan, in cell work by metabolically active cells.

Series [6] concerns CLL cells. The series can be described thus: Cytotoxicity of NOS inhibitors for CLL cells in vitro (PI exclusion assay). To be noted: Homo sapiens, CLL cell, read-out: Mean ED50 ± S.E.M. (CLL cell cytotoxicity). The format is cell-based.
Excerpt: Toxicity could be detected by disappearance of cells from the culture (reduction in overall cell number), uptake of trypan blue, propidium iodide uptake (flow cytometry), MTS (4,5-dimethylthiazol-2-yl)-5-(3-carboxymethoxyphenyl)-2-(4-sulfophenyl)-2H-tetrazolium, inner salt) assay (cellular respiration), and several parameters of apoptosis [annexin V assay, DNA content (<in), and TUNEL assay].
Series [7] addresses T1, purified recombinant human NOS2 oxygenase domain (Homo sapiens, UniProt P35228).
T1 construct: purified recombinant human NOS2 oxygenase domain
The series can be described thus: NOS inhibitor binding (Kd) to NOS2. How it is done: […] The cLogP value for each NOS inhibitor was determined using the CLOGP computer program (BioByte, Claremont, Calif.). […] Linear regression was used to examine the correlation between the IC50, Kd and cLogP values and ED50 values.
We determined the dissociation constant for NOS inhibitor binding (Kd) to purified recombinant and NOS2.

The target of series [8] is T2, purified recombinant rat NOS1 oxygenase domain (Rattus norvegicus, UniProt P29476).
T2 construct: purified recombinant rat NOS1 oxygenase domain
T2 sequence (P29476 1-720 limits assumed): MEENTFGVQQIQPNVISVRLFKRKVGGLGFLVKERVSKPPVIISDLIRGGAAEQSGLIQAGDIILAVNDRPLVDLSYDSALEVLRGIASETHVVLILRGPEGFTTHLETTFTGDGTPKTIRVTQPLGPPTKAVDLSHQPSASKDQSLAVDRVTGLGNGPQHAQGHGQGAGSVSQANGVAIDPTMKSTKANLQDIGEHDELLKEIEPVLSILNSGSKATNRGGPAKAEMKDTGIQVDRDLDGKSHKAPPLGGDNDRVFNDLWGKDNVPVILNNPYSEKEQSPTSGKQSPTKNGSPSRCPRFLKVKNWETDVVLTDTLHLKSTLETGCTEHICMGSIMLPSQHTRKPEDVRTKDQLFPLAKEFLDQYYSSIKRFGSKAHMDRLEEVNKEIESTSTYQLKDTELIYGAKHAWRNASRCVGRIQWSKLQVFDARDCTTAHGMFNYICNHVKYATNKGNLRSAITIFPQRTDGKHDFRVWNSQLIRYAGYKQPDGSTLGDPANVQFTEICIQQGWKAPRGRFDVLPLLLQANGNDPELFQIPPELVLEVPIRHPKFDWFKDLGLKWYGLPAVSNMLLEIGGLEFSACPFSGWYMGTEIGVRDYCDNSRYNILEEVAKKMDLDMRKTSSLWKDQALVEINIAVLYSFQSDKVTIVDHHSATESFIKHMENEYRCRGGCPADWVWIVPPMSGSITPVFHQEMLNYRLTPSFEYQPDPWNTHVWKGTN
The series can be described thus: NOS inhibitor binding (Kd) to NOS1.

In general, Kd refers to the free concentration of one partner at which half of the binding sites on the other are occupied at equilibrium, for simple one-to-one binding.

T1 sequence (P35228 1-504 limits assumed): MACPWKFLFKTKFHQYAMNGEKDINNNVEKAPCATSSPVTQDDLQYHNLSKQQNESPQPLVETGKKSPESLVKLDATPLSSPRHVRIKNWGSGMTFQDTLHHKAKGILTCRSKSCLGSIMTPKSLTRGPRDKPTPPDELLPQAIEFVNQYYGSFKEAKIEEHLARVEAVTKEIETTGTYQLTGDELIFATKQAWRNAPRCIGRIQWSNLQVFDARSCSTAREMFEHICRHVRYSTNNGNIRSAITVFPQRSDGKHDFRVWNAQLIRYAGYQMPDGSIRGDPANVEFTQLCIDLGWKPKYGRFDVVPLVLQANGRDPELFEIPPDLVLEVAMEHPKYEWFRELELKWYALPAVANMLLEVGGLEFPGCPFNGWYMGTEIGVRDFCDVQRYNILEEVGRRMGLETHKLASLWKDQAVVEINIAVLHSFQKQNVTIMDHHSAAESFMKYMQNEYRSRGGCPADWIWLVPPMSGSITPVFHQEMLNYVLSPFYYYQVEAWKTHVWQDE

Turning to `NCCN(CCN)/[N+]([O-])=N/O` [DETA-NO, (Z)-1-[N-(2-aminoethyl)-N-(2-ammonioethyl)amino]diazen-1-ium-1,2-diolate-NO], in series [1], the “Interaction of DETA-NO with fludarabine in killing CLL cells” value is “acted synergistically”. Also, in series [2], the “Inhibition of leukemia cell and colony growth” value is recorded as “most potent inhibitor”.

Regarding `CC(=O)O.CNC(=N)NCCC[C@H](N)C(=O)O` [L-NMMA, N^G-Monomethyl-L-arginine monoacetate], the “Apoptosis (TUNEL assay)” value in series [3] is listed as “induced”. In series [4], the “Effects on cardiovascular, liver, or hematopoietic function” value is recorded as “no major effects”. Moreover, the “ED50 ranking, FIG. 10” value in series [5] is recorded as “very high ED50”.

With `C=CCC(=N)NCCC[C@H](N)C(=O)O` [Vinyl-L-NIO, N^5-(1-Imino-3-butenyl)-L-ornithine], the EC50 in series [6] is 1190 ± 456 µM. The results for the Kd in series [7] and in series [8] were 0.5 µM and 0.1 µM, respectively.

These data come from patent US20090186929A1, “Method and agent for inducing apoptosis/cell death in leukemia cells” (U.S. DEPARTMENT OF VETERANS AFFAIRS, priority 2003, published 2009).
